{"source": "paper PMC7997032", "about": "“Organic synthesis and anti-influenza A virus activity of cyclobakuchiols A, B, C, and D” (PLoS ONE, 2021)", "test_system": "A/PR/8/34 virus", "assay": "Immunofluorescence staining of viral NP in influenza A virus-infected MDCK cells", "conditions": "for NP/DAPI (%) ave: average of 9 wells; for NP/DAPI (%): single well", "note": "“And” between values parts separate entries of the source, which are not always exact repeats. Equal entries are not always repeated.", "description": "MDCK cells were seeded on a 96-well plate at 1 × 10^4 cells/well. […] Each mixture was added to the cells at 37°C in the presence of 5% CO2. […] After influenza A viral infection for 24 h, the cells were fixed with 4% paraformaldehyde in phosphate-buffered saline (PBS) for 30 min at 4°C and subsequently permeabilized by the addition of 0.3% Triton X-100 for 20 min at 25°C. A mouse primary antibody was used to detect the NP of A/PR/8/34 or A/WSN/33 viruses (FluA-NP 4F1; SouthernBiotech, AL, USA). Alexa Fluor488-conjugated goat anti-mouse IgG (H + L) antibody (Thermo Fisher Scientific) was used as the secondary antibody. Cell nuclei were then stained using diamidino-2-phenylindole (DAPI) (Thermo Fisher Scientific). Wells were photographed using a fluorescence microscope (BIOREVO BZ-X700; Keyence, Osaka, Japan). The proportion of influenza A NP-positive cells per DAPI-positive cells was calculated based on measurements recorded using BZ-X Analyzer software (Keyence)."}
{"smiles": "C=C[C@@](C)(/C=C/c1ccc(O)cc1)CCC=C(C)C", "note": "[(+)-(S)-bakuchiol, reference compound]", "values": [{"measurement": "percentage of influenza A NP-positive cells relative to DMSO", "setting": "A/PR/8/34, 3.1 μM, 24 h, Fig 4B", "result": "significantly reduced"}, {"measurement": "NP/DAPI (%) ave", "setting": "A/PR/8/34, 3.13 uM", "result": 3.314, "unit": "%"}, {"measurement": "NP/DAPI (%) ave", "setting": "A/PR/8/34, 6.25 uM", "result": 1.176, "unit": "%"}, {"measurement": "percentage of influenza A NP-positive cells compared with the 5-treatment", "setting": "A/PR/8/34, 6.3 μM, 24 h, Fig 4B", "result": "significantly reduced"}, {"measurement": "NP/DAPI (%) ave", "setting": "A/PR/8/34, 12.5 uM", "result": 0.5619, "unit": "%"}, {"measurement": "NP/DAPI (%)", "setting": "A/PR/8/34, 12.5 uM, listed as (+)-S-Bakuchiol", "result": "1.274% and 0.625% and 0.6742% and 0.2454% and 0.2653% and 0.5128% and 0.5703%"}, {"measurement": "NP/DAPI (%)", "setting": "A/PR/8/34, 12.5 uM, listed as (+)-S-bakuchiol", "result": 0.4184, "unit": "%"}, {"measurement": "NP/DAPI (%) ave", "setting": "A/PR/8/34, 25 uM", "result": 0.5226, "unit": "%"}, {"measurement": "percentage of influenza A NP-positive cells relative to DMSO", "setting": "A/PR/8/34, 6.3–12.5 μM, 24 h, Fig 4B", "result": "significantly reduced"}, {"measurement": "IC50", "setting": "Influenza A virus, PR/8, MDCK, read-out: half maximal (50%) inhibitory concentration (IC50)", "result": "2100 ± 1200", "unit": "nM"}]}
